Results taken from patent US12145944B2, “Imidazopyrimidines as EED inhibitors and the use thereof” (THE REGENTS OF THE UNIVERSITY OF MICHIGAN, priority 2019, dated 2024).

What was measured:
[1] = system: KARPAS422 human B cell lymphoma cell; assay: Cell proliferation, KARPAS422, 7 day treatment (WST-8); format: cell-based; details: Homo sapiens, KARPAS-422, 168 h, anti-proliferative IC50, Karpas 422 cell line, 7 day treatment; read-out: Karpas Cell line
How it was run: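 Read-out was WST-8 absorbance at 450 nm after 1-4 h with reagent, taken after 7-day compound treatment (serial dilutions, 37 °C, 5% CO2) of 2 000-3 000 KARPAS422 cells per well. IC50 fitted by nonlinear regression on DMSO-normalized values.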

Pfeiffer cell line = assay: Anti-proliferative activity, Pfeiffer cell line, 7 day treatment; format: cell-based; details: Homo sapiens, 168 h; anti-proliferative IC50, Pfeiffer cell line, 7 day treatment; read-out: Pfeiffer Cell line
How it was run: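 Cells seeded at 2 000-3 000 per well were treated with serially diluted compounds for 7 days at 37° C, 5% CO2. Growth was measured by WST-8 assay read at 450 nm after 1-4 h reagent incubation. Readings were normalized to DMSO-treated cells and IC50 values derived by nonlinear regression.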

IC50 [1] [nM] | IC50 (Pfeiffer cell line) [nM] | SMILES
1.98 | 0.22 | O=C1OCc2ccccc2-c2cnc(NCc3c(F)ccc4c3CCO4)n3cnc1c23 [compound 6, 12-(((5-fluoro-2,3-dihydrobenzofuran-4-yl)methyl)amino)-3H,5H-4-oxa-2,11,12a-triazabenzo[4,5]cycloocta[1,2,3-cd]inden-3-one]
3.35 | 0.68 | O=C1OCc2cc(F)ccc2-c2cnc(NCc3c(F)ccc4c3CCO4)n3cnc1c23 [compound 7, 7-fluoro-12-(((5-fluoro-2,3-dihydrobenzofuran-4-yl)methyl)amino)-3H,5H-4-oxa-2,11,12a-triazabenzo[4,5]cycloocta[1,2,3-cd]inden-3-one]
2.91 | 0.57 | O=C1OCc2cc(C(F)(F)F)ccc2-c2cnc(NCc3c(F)ccc4c3CCO4)n3cnc1c23 [compound 8, 12-(((5-fluoro-2,3-dihydrobenzofuran-4-yl)methyl)amino)-7-(trifluoromethyl)-3H,5H-4-oxa-2,11,12a-triazabenzo[4,5]cycloocta[1,2,3-cd]inden-3-one]
9.03 | 1.99 | O=C1OCc2cc(C(F)(F)F)ncc2-c2cnc(NCc3c(F)ccc4c3CCO4)n3cnc1c23 [compound 13, 12-(((5-fluoro-2,3-dihydrobenzofuran-4-yl)methyl)amino)-7-(trifluoromethyl)-3H,5H-4-oxa-2,8,11,12a-tetraazabenzo[4,5]cycloocta[1,2,3-cd]inden-3-one]
3.49 | 0.36 | O=C1OCc2nc(C(F)(F)F)ccc2-c2cnc(NCc3c(F)ccc4c3CCO4)n3cnc1c23 [compound 14, 12-(((5-fluoro-2,3-dihydrobenzofuran-4-yl)methyl)amino)-7-(trifluoromethyl)-3H,5H-4-oxa-2,6,11,12a-tetraazabenzo[4,5]cycloocta[1,2,3-cd]inden-3-one]
9.6 | 0.79 | O=C1NCc2cc(C(F)(F)F)ccc2-c2cnc(NCc3c(F)ccc4c3CCO4)n3cnc1c23 [compound 19, 12-(((5-fluoro-2,3-dihydrobenzofuran-4-yl)methyl)amino)-7-(trifluoromethyl)-4,5-dihydro-3H-2,4,11,12a-tetraazabenzo[4,5]cycloocta[1,2,3-cd]inden-3-one]
> 100 | 38.4 | O=C1OCc2ccc(C(F)(F)F)cc2-c2cnc(NCc3c(F)ccc4c3CCO4)n3cnc1c23 [compound 24, 12-(((5-fluoro-2,3-dihydrobenzofuran-4-yl)methyl)amino)-8-(trifluoromethyl)-3H,5H-4-oxa-2,11,12a-triazabenzo[4,5]cycloocta[1,2,3-cd]inden-3-one]
41.4 | 32.9 | O=C1NCc2ccc(C(F)(F)F)cc2-c2cnc(NCc3c(F)ccc4c3CCO4)n3cnc1c23 [compound 26, 12-(((5-fluoro-2,3-dihydrobenzofuran-4-yl)methyl)amino)-8-(trifluoromethyl)-4,5-dihydro-3H-2,4,11,12a-tetraazabenzo[4,5]cycloocta[1,2,3-cd]inden-3-one]
84.4 | 11.6 | O=C1OCc2cnc(C(F)(F)F)cc2-c2cnc(NCc3c(F)ccc4c3CCO4)n3cnc1c23 [compound 32, 12-(((5-fluoro-2,3-dihydrobenzofuran-4-yl)methyl)amino)-8-(trifluoromethyl)-3H,5H-4-oxa-2,7,11,12a-tetraazabenzo[4,5]cycloocta[1,2,3-cd]inden-3-one]

More lines, now with the values behind:

SMILES | IC50 [1] [nM] | IC50 (Pfeiffer cell line) [nM]
O=C1OCc2cc(F)ccc2-c2cnc(NCc3cccc4c3CCO4)n3cnc1c23 [compound 9, 12-(((2,3-dihydrobenzofuran-4-yl)methyl)amino)-7-fluoro-3H,5H-4-oxa-2,11,12a-triazabenzo[4,5]cycloocta[1,2,3-cd]inden-3-one] | 5.6 | 1.81
O=C1OCc2ncccc2-c2cnc(NCc3c(F)ccc4occc34)n3cnc1c23 [compound 10, 12-(((5-fluorobenzofuran-4-yl)methyl)amino)-3H,5H-4-oxa-2,6,11,12a-tetraazabenzo[4,5]cycloocta[1,2,3-cd]inden-3-one] | 15.8 | 2.93
O=C1OCc2c(F)cccc2-c2cnc(NCc3c(F)ccc4c3CCO4)n3cnc1c23 [compound 11, 6-fluoro-12-(((5-fluoro-2,3-dihydrobenzofuran-4-yl)methyl)amino)-3H,5H-4-oxa-2,11,12a-triazabenzo[4,5]cycloocta[1,2,3-cd]inden-3-one] | 4.61 | 1.22
O=C1NCc2ccccc2-c2cnc(NCc3c(F)ccc4c3CCO4)n3cnc1c23 [compound 15, 12-(((5-fluoro-2,3-dihydrobenzofuran-4-yl)methyl)amino)-4,5-dihydro-3H-2,4,11,12a-tetraazabenzo[4,5]cycloocta[1,2,3-cd]inden-3-one] | 4.36 | 1.25
O=C1NCc2cc(F)ccc2-c2cnc(NCc3c(F)ccc4c3CCO4)n3cnc1c23 [compound 17, 7-fluoro-12-(((5-fluoro-2,3-dihydrobenzofuran-4-yl)methyl)amino)-4,5-dihydro-3H-2,4,11,12a-tetraazabenzo[4,5]cycloocta[1,2,3-cd]inden-3-one] | 20.5 | 4.17
Cc1ccc2c(n1)COC(=O)c1ncn3c(NCc4c(F)ccc5c4CCO5)ncc-2c13 [compound 18, 12-(((5-fluoro-2,3-dihydrobenzofuran-4-yl)methyl)amino)-7-methyl-3H,5H-4-oxa-2,6,11,12a-tetraazabenzo[4,5]cycloocta[1,2,3-cd]inden-3-one] | 15.3 | 0.73
O=C1NCc2c(F)cccc2-c2cnc(NCc3c(F)ccc4c3CCO4)n3cnc1c23 [compound 20, 6-fluoro-12-(((5-fluoro-2,3-dihydrobenzofuran-4-yl)methyl)amino)-4,5-dihydro-3H-2,4,11,12a-tetraazabenzo[4,5]cycloocta[1,2,3-cd]inden-3-one] | 13.9 | 0.9
Cc1ccc2c(n1)CNC(=O)c1ncn3c(NCc4c(F)ccc5c4CCO5)ncc-2c13 [compound 21, 12-(((5-fluoro-2,3-dihydrobenzofuran-4-yl)methyl)amino)-7-methyl-4,5-dihydro-3H-2,4,6,11,12a-pentaazabenzo[4,5]cycloocta[1,2,3-cd]inden-3-one] | 14.9 | 0.61
O=C1NCc2cc(C(F)(F)F)ncc2-c2cnc(NCc3c(F)ccc4c3CCO4)n3cnc1c23 [compound 22, 12-(((5-fluoro-2,3-dihydrobenzofuran-4-yl)methyl)amino)-7-(trifluoromethyl)-4,5-dihydro-3H-2,4,8,11,12a-pentaazabenzo[4,5]cycloocta[1,2,3-cd]inden-3-one] | 45.6 | 4.88
O=C1NCc2ccc(F)cc2-c2cnc(NCc3c(F)ccc4c3CCO4)n3cnc1c23 [compound 23, 8-fluoro-12-(((5-fluoro-2,3-dihydrobenzofuran-4-yl)methyl)amino)-4,5-dihydro-3H-2,4,11,12a-tetraazabenzo[4,5]cycloocta[1,2,3-cd]inden-3-one] | 89.2 | 9.95
O=C1NCc2nc(C(F)(F)F)ccc2-c2cnc(NCc3c(F)ccc4c3CCO4)n3cnc1c23 [compound 25, 12-(((5-fluoro-2,3-dihydrobenzofuran-4-yl)methyl)amino)-7-(trifluoromethyl)-4,5-dihydro-3H-2,4,6,11,12a-pentaazabenzo[4,5]cycloocta[1,2,3-cd]inden-3-one] | 16.5 | 0.29
O=C1OCc2cc(C(F)(F)F)ccc2-c2cnc(NCc3cccc4c3OCO4)n3cnc1c23 [compound 27, 12-((benzo[d][1,3]dioxol-4-ylmethyl)amino)-7-(trifluoromethyl)-3H,5H-4-oxa-2,11,12a-triazabenzo[4,5]cycloocta[1,2,3-cd]inden-3-one] | > 100 | > 100
COc1cccc(F)c1CNc1ncc2c3c(ncn13)C(=O)OCc1cc(C(F)(F)F)ccc1-2 [compound 28, 12-((2-fluoro-6-methoxybenzyl)amino)-7-(trifluoromethyl)-3H,5H-4-oxa-2,11,12a-triazabenzo[4,5]cycloocta[1,2,3-cd]inden-3-one] | > 100 | > 100
CN1Cc2nc(C(F)(F)F)ccc2-c2cnc(NCc3c(F)ccc4c3CCO4)n3cnc(c23)C1=O [compound 33, 12-(((5-fluoro-2,3-dihydrobenzofuran-4-yl)methyl)amino)-4-methyl-7-(trifluoromethyl)-4,5-dihydro-3H-2,4,6,11,12a-pentaazabenzo[4,5]cycloocta[1,2,3-cd]inden-3-one] | 1.11 | 0.22
CN1Cc2cc(C(F)(F)F)ncc2-c2cnc(NCc3c(F)ccc4c3CCO4)n3cnc(c23)C1=O [compound 34, 12-(((5-fluoro-2,3-dihydrobenzofuran-4-yl)methyl)amino)-4-methyl-7-(trifluoromethyl)-4,5-dihydro-3H-2,4,8,11,12a-pentaazabenzo[4,5]cycloocta[1,2,3-cd]inden-3-one] | 2.64 | 0.35
O=C1c2ncn3c(NCc4c(F)ccc5c4CCO5)ncc(c23)-c2ccc(C(F)(F)F)nc2CN1CC1COCCO1 (stereo not shown) [compound 35, 4-((1,4-dioxan-2-yl)methyl)-12-(((5-fluoro-2,3-dihydrobenzofuran-4-yl)methyl)amino)-7-(trifluoromethyl)-4,5-dihydro-3H-2,4,6,11,12a-pentaazabenzo[4,5]cycloocta[1,2,3-cd]inden-3-one] | 1.23 | 0.12
O=C1c2ncn3c(NCc4c(F)ccc5c4CCO5)ncc(c23)-c2cnc(C(F)(F)F)cc2CN1CC1COCCO1 (stereo not shown) [compound 37, 4-((1,4-dioxan-2-yl)methyl)-12-(((5-fluoro-2,3-dihydrobenzofuran-4-yl)methyl)amino)-7-(trifluoromethyl)-4,5-dihydro-3H-2,4,8,11,12a-pentaazabenzo[4,5]cycloocta[1,2,3-cd]inden-3-one] | 1.79 | 0.25
